Results published in paper PMC10891214, “Effects of food and ethnicity on the pharmacokinetics of venadaparib, a next-generation PARP inhibitor, in healthy Korean, Caucasian, and Chinese male subjects” (Investigational New Drugs, 2023).

How the values were obtained:
[1] = tested on: PARP; design: method as in PMID 36808277, PMID 24162931, PMID 33657415; details: cited from earlier work
[2] = Pharmacokinetics after a single oral administration of venadaparib 80 mg (fasted or fed state) in healthy male subjects; assay type: in vivo, human; details: for AUCinf / AUClast / CL/F / Cmax / Vd/F / t1/2 / Tmax: 80 mg single oral; for AUCinf / AUClast / CL/F / Cmax / Vd/F / t1/2: mean ± SD; for Tmax: median (minimum–maximum); for AUCinf geometric mean ratio (90% confidence interval) / AUClast geometric mean ratio (90% confidence interval) / Cmax geometric mean ratio (90% confidence interval): fed to fasted state
Description: A randomized, open-label, single-dose, two-sequence, and two-period crossover study was conducted with 12 Korean and 12 Caucasian subjects. Subjects in each ethnic group were randomly assigned to one of the two sequences at a ratio of 1:1 (Fig. 1). The subjects were orally administered 80 mg of venadaparib in each treatment period (fasted or fed state), following an overnight fast of at least 10 h. There was a seven-day washout between the two treatment periods. In the fed state, the subjects consumed an entire high-fat meal (total of 800–1000 kcal, fat of 500–600 kcal) within 20 min and were subsequently administered the study drug with 240 mL of water 30 min after the start of the meal. An open-label, single-dose study was conducted on 12 Chinese subjects who received 80 mg of venadaparib only in the fasted state (Fig. 1).
Based on the PK results of venadaparib in a previous study (NCT03317743), serial blood samples for the PK analysis of venadaparib were collected at 0 (pre-dose), 0.25, 0.5, 1, 2, 3, 4, 6, 8, 10, 12, 24, 36, 48, and 72 h post-dose for all treatment and ethnic groups. The blood samples were collected in a K2-ethylenediaminetetraacetic acid (EDTA) vacutainer, centrifuged at 4 ℃ and 3000 rpm for 10 min, and stored at − 70 ℃ until analysis.
Plasma concentrations of venadaparib were determined using validated high-performance liquid chromatography (Exion LC, AB Sciex) coupled with mass spectrometry (Triple Quad 5500+, AB Sciex). Venadaparib as an analyte and olaparib as the internal standard were separated using a Gemini 3 μm NX-C18 110 Å (100 × 3 mm) column (Phenomenex, CA, USA) at 40 ℃. The mobile phase comprised 0.1% formic acid in distilled water and 100% acetonitrile at a flow rate of 0.3 mL/minute. Venadaparib and olaparib were detected with a turbo-ion spray in positive ionization mode at an m/z transition of 407.2 → 70.0 and 435.2 → 281.1, respectively.
The calibration curve for venadaparib ranged from 5 to 5000 μg/L, with precision and accuracy ranging from 1.89 to 4.00% and 92.98 to 102.80%, respectively. For the quality control sample data of venadaparib, the precision and accuracy ranged from 4.38 to 5.18% and 96.75 to 102.59%, respectively.
The PK parameters of venadaparib were calculated by a non-compartmental method using Phoenix WinNonlin software version 8.3.4 (Certara, NJ, USA). The area under the plasma concentration-time curve (AUC) was determined using the linear-up log-down trapezoidal method. The primary PK parameters were Cmax and AUC from time zero to the last measurable time point (AUClast) for comparison between the exposures to the effects of food and ethnicity. The following secondary PK parameters were calculated: AUC from time zero to infinity (AUCinf), time to reach Cmax (Tmax), t1/2, apparent total clearance (CL/F), and apparent volume of distribution (Vd/F).
Statistical analyses were conducted using SAS software version 9.4 (SAS Institute Inc., NC, USA). The primary PK parameters in the fed and fasted states were compared by estimating the geometric mean ratios and 90% confidence intervals using a linear mixed-effects model. The model included the sequence, period, and treatment as fixed effects, and the subject nested within the sequence as a random effect. Analysis of variance (ANOVA) tests were conducted to assess possible differences in the values of the primary PK parameters among the ethnic groups in the fasted state.

[3] = tested on: PARP2; design: method as in PMID 36808277; details: cited from earlier work
[4] = design: method as in data on file (NCT03317743); details: ref data on file (NCT03317743), cited from earlier work
[5] = tested on: PARP3; design: method as in PMID 36808277; details: cited from earlier work
[6] = tested on: PARP1; design: method as in PMID 36808277; details: cited from earlier work
[7] = tested on: cancer cell lines with BRCA mutations; design: method as in PMID 36808277; details: cited from earlier work
[8] = in vivo
Description: Safety was assessed in all subjects who received the study drug at least once throughout the study based on adverse event (AE) monitoring, physical examinations, vital signs, 12-lead electrocardiograms (ECGs), and clinical laboratory tests.
To support the evaluation of the relationship between concentration and QT/corrected QT (QTc) interval effects in the early stage of the clinical development of venadaparib, triplicate ECG tests were conducted in the middle of the study [22]. A triplicate ECG test was conducted in three Caucasian and five Chinese subjects after the protocol amendment. […] Fridericia’s corrected QT interval (QTcF) was collected, along with the existing ventricular rate, PR interval, QRS duration, QT interval, and QTcB. Triplicate ECGs were measured three times at intervals of 30 s to 2 min at each time point after at least 5 min of resting, and the median value of the three measurements was considered a representative value. QTcF and QTcB were calculated using the following population-derived correction equations: QTcF = QT/RR^0.33 and QTcB = QT/RR^0.5 [22].

[9] = tested on: patient-derived xenograft; design: method as in PMID 36808277; details: patient-derived xenograft mouse model; cited from earlier work
[10] = tested on: poly(ADP-ribose) formation; design: method as in PMID 36808277, PMID 24162931, PMID 33657415; details: cited from earlier work
[11] = tested on: PARP5; design: method as in PMID 36808277; details: cited from earlier work
[12] = Caucasian, fasted state (N = 12)

Question: Which results are given for `O=C(c1cc(Cc2n[nH]c(=O)c3ccccc23)ccc1F)N1CC(CNC2CC2)C1` [venadaparib]?
Answer: Activity of trapping PARP, relative to talazoparib [1]: comparable; AUCinf [2, 12]: 14.20262 ± 4.35238 µg·h/mL; AUClast [2, 12]: 14.09132 ± 4.28515 µg·h/mL; CL/F [2, 12]: 6.10 ± 1.73 L/h; Cmax [2, 12]: 2.39229 ± 0.46448 µg/mL; Vd/F [2, 12]: 72.52 ± 18.25 L; t1/2 [2, 12]: 9.32 ± 4.98 h; Tmax [2, 12]: 0.50 (0.50–2.00) h; AUCinf ([2]; Caucasian, fed state (N = 12)): 13.7522 ± 4.52249 µg·h/mL; AUClast ([2]; Caucasian, fed state (N = 12)): 13.55703 ± 4.4016 µg·h/mL; CL/F ([2]; Caucasian, fed state (N = 12)): 6.33 ± 1.78 L/h; Cmax ([2]; Caucasian, fed state (N = 12)): 1.8943 ± 0.60249 µg/mL; Vd/F ([2]; Caucasian, fed state (N = 12)): 124.29 ± 71.28 L; t1/2 ([2]; Caucasian, fed state (N = 12)): 14.16 ± 7.16 h; Tmax ([2]; Caucasian, fed state (N = 12)): 2.00 (1.00–4.00) h; AUCinf geometric mean ratio (90% confidence interval) ([2]; Caucasian, 80 mg): 0.96 (0.9074–1.0260); AUClast geometric mean ratio (90% confidence interval) ([2]; Caucasian, 80 mg): 0.96 (0.9017–1.0186); Cmax geometric mean ratio (90% confidence interval) ([2]; Caucasian, 80 mg): 0.77 (0.6871–0.8609); Decrease of Cmax in the fed state compared with the fasted state ([2]; Caucasians, 80 mg): 23%; AUCinf ([2]; Chinese, fasted state (N = 12)): 14.98187 ± 4.27666 µg·h/mL; AUClast ([2]; Chinese, fasted state (N = 12)): 14.87851 ± 4.25497 µg·h/mL; CL/F ([2]; Chinese, fasted state (N = 12)): 5.84 ± 2.02 L/h; Cmax ([2]; Chinese, fasted state (N = 12)): 2.39012 ± 0.57602 µg/mL; Vd/F ([2]; Chinese, fasted state (N = 12)): 53.23 ± 20.51 L; t1/2 ([2]; Chinese, fasted state (N = 12)): 6.95 ± 4.18 h; Tmax ([2]; Chinese, fasted state (N = 12)): 1.00 (0.50–2.00) h; AUCinf ([2]; Korean, fasted state (N = 12)): 12.45318 ± 3.56566 µg·h/mL; AUClast ([2]; Korean, fasted state (N = 12)): 12.34713 ± 3.5143 µg·h/mL; CL/F ([2]; Korean, fasted state (N = 12)): 6.92 ± 1.95 L/h; Cmax ([2]; Korean, fasted state (N = 12)): 2.16559 ± 0.44608 µg/mL; Vd/F ([2]; Korean, fasted state (N = 12)): 83.84 ± 48.70 L; t1/2 ([2]; Korean, fasted state (N = 12)): 9.06 ± 6.08 h; Tmax ([2]; Korean, fasted state (N = 12)): 0.50 (0.50–2.00) h; AUCinf ([2]; Korean, fed state (N = 12)): 13.1089 ± 5.77131 µg·h/mL; AUClast ([2]; Korean, fed state (N = 12)): 12.97202 ± 5.73425 µg·h/mL; CL/F ([2]; Korean, fed state (N = 12)): 6.95 ± 2.29 L/h; Cmax ([2]; Korean, fed state (N = 12)): 1.83501 ± 0.63711 µg/mL; Vd/F ([2]; Korean, fed state (N = 12)): 104.18 ± 57.31 L; t1/2 ([2]; Korean, fed state (N = 12)): 10.80 ± 5.10 h; Tmax ([2]; Korean, fed state (N = 12)): 2.00 (0.50–4.00) h; AUCinf geometric mean ratio (90% confidence interval) ([2]; Korean, 80 mg): 1.02 (0.9126–1.1360); AUClast geometric mean ratio (90% confidence interval) ([2]; Korean, 80 mg): 1.02 (0.9088–1.1339); Cmax geometric mean ratio (90% confidence interval) ([2]; Korean, 80 mg): 0.82 (0.7457–0.9094); Reduction of peak concentrations after a high-fat meal ([2]; Koreans and Caucasians, 80 mg): approximately 20%; Decrease of Cmax in the fed state compared with the fasted state ([2]; Koreans, 80 mg): 18%; PK profiles among the Korean, Caucasian, and Chinese subjects ([2]; fasted state, 80 mg): comparable; Effect of the high-fat meal on overall systemic exposure ([2]; fed vs fasted state, 80 mg): not significantly affected; IC50 compared with those of olaparib [3]: similar; Mean elimination half-life (t1/2) ([4]; Korean patients with advanced solid tumors, 2–240 mg/day): 7 to 13 h; Safety and tolerability of multiple three-week administrations ([4]; dose range 2–240 mg/day, Korean patients): safe and well-tolerated; Relationship of systemic exposure to dose ([4]; dose range 2–240 mg/day): dose-proportional; IC50 compared with those of olaparib [5]: higher; IC50 compared with those of olaparib [6]: similar; Antitumor potency, fold higher than that of olaparib [7]: 40–440 fold; Infections and infestations: number of events [8]: 1; Infections and infestations: number of subjects (percentage of subjects) [8]: 1 (8.3); Oral herpes: number of events ([8]; po): 1; Oral herpes: number of subjects (percentage of subjects) ([8]; po): 1 (8.3); Tumor growth inhibition rate [9]: 131.0–135.2%; Activity of inhibiting poly(ADP-ribose) formation, relative to talazoparib [10]: comparable; IC50 compared with those of olaparib [11]: higher
